Like-named read-outs stand apart in the source and are kept apart here.
Key:
[1] = molecular target: T1, FKBP52FK1 (Homo sapiens, UniProt Q02790); assay: Binding affinity of ligands with large RA (E3-ligase CRBN, PEG linker)
T1 construct: FKBP52FK1
T1 sequence (Q02790 50-138 limits assumed): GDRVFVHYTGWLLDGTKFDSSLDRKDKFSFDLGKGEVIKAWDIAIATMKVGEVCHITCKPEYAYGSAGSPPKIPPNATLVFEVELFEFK
Excerpt: (§1) Further example of a diazabicyclo[4.3.1]decane with a large, bulky substituent in RA. The n corresponds to a varying PEG-linker length of 1-5. All tested ligands with a S-methyl group display increased binding affinity to the tested FKBPs while all R-isomers display decreased binding affinity as shown in the table below. In all cases, the addition of the methyl group in S-configuration increases the affinity to all measured FKBPs substantially.

[2] = molecular target: T2, FKBP12.6 (Homo sapiens, UniProt P68106); assay: as above; details: * = detection limit
Excerpt: as §1

[3] = molecular target: T3, FKBP51FK1 (Homo sapiens, UniProt Q13451); assay: as above
T3 construct: FKBP51FK1
T3 sequence (Q13451 42-130 limits assumed): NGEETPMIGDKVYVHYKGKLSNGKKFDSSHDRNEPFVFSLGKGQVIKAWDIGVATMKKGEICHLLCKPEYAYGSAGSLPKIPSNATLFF
Excerpt: as §1

[4] = molecular target: T4, FKBP12 (Homo sapiens, UniProt P62942); assay: as above; details: * = detection limit
Excerpt: as §1

[5] = molecular target: T4, FKBP12; assay: FP assay, binding to human FKBPs (Table 1); details: fluorescence polarization assay
[6] = molecular target: T5, FKBP52 (Homo sapiens, UniProt Q02790); assay: FP assay, binding to human FKBPs (Table 1); details: fluorescence polarization assay
T5 sequence (Q02790 1-459): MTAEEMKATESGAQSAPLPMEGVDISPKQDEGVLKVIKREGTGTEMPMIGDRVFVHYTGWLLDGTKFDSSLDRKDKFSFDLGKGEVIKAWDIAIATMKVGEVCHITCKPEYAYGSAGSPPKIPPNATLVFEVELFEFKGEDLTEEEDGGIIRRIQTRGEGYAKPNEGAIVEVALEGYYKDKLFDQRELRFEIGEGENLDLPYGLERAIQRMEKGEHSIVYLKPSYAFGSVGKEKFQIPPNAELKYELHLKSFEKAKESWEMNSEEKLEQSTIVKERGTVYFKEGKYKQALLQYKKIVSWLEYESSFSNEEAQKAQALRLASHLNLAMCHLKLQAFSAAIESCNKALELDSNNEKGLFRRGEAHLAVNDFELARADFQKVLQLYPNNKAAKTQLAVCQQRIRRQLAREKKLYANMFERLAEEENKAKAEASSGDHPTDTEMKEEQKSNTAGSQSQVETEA

[7] = molecular target: LpMip (Legionella pneumophila subsp. pneumophila, UniProt Q5ZXE0); assay: biochemical; type: binding
[8] = molecular target: T2, FKBP12.6; assay: FP assay, binding to human FKBPs (Table 1); details: fluorescence polarization assay
[9] = molecular target: T6, FKBP51 (Homo sapiens, UniProt Q13451); assay: FP assay, binding to human FKBPs (Table 1); details: fluorescence polarization assay
T6 sequence (Q13451 1-457): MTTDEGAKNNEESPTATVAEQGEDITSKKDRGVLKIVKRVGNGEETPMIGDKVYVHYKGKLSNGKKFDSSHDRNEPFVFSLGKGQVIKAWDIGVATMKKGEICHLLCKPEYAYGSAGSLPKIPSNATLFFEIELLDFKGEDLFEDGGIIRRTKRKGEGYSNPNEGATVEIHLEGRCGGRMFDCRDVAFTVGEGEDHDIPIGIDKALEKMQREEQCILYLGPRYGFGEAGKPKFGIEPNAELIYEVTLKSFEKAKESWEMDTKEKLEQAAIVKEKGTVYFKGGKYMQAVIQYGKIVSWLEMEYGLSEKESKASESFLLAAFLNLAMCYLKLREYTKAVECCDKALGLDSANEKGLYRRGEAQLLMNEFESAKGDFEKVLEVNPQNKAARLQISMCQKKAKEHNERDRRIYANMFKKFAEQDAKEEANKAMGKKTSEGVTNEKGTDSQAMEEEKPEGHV

T4 sequence (P62942 whole entry): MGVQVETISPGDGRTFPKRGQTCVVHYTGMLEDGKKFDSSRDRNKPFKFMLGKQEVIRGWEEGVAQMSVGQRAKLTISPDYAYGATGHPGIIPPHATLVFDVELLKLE
T2 sequence (P68106 whole entry): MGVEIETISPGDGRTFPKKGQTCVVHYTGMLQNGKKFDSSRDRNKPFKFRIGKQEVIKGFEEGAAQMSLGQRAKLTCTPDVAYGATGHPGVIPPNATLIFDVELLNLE
Sequence of LpMip (Q5ZXE0 21-233 limits assumed): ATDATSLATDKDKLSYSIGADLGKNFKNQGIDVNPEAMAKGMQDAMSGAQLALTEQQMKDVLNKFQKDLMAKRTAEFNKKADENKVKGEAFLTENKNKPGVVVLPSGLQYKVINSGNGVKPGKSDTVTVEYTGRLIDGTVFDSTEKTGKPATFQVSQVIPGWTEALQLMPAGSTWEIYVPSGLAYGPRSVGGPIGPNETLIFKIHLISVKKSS

`C=C[C@H]1CN([C@@H](C)c2cn(CCOCCOCC(=O)Nc3cccc4c3C(=O)N(C3CCC(=O)NC3=O)C4=O)nn2)C(=O)[C@@H]2CCC[C@H]1N2S(=O)(=O)c1cc(Cl)cc(Cl)c1` (some centres unmarked) [MTQ514] was tested, and the Ki [1] was 5.7 ± 1.7 nM, the Ki [2] was 2.4 ± 0.4 nM and the Ki [3] was 4.4 ± 1.2 nM. The Ki [4] was 0.4 ± 0.1 nM.
`C=C[C@H]1CN([C@@H](C)c2cn(CCOCCOCCOCCOCC(=O)Nc3cccc4c3C(=O)N(C3CCC(=O)NC3=O)C4=O)nn2)C(=O)[C@@H]2CCC[C@H]1N2S(=O)(=O)c1cc(Cl)cc(Cl)c1` (some centres unmarked) [MTQ516] gave a Ki [1] of 8.4 ± 2.3 nM, a Ki [2] of 3.7 ± 0.5 nM and a Ki [3] of 4.2 ± 0.8 nM. The Ki [4] was 0.5 ± 0.1 nM.
Work on `C=C[C@H]1CN([C@@H](C)c2cn(CCOCC(=O)Nc3cccc4c3C(=O)N(C3CCC(=O)NC3=O)C4=O)nn2)C(=O)[C@@H]2CCC[C@H]1N2S(=O)(=O)c1cc(Cl)cc(Cl)c1` (some centres unmarked) [MTQ513] yielded a Ki [1] of 0.7 ± 0.3 nM, a Ki [2] of 0.41 ± 0.2 nM and a Ki [3] of 2.3 ± 0.4 nM. It also gave a Ki [4] of 0.2 ± 0.02 nM.
With `C=C[C@H]1CN(Cc2cn(CCOCC(=O)Nc3cccc4c3C(=O)N(C3CCC(=O)NC3=O)C4=O)nn2)C(=O)[C@@H]2CCC[C@H]1N2S(=O)(=O)c1cc(Cl)cc(Cl)c1` (some centres unmarked) [MTQ503] the Ki [1] was 1.9 ± 0.5 nM, the Ki [2] was 0.46 ± 0.1 nM and the Ki [3] was 8 ± 1 nM. The Ki [4] was 0.2 ± 0.03 nM.
For `C=C[C@H]1CN([C@@H](C)c2cn(CCOCCOCCOCC(=O)Nc3cccc4c3C(=O)N(C3CCC(=O)NC3=O)C4=O)nn2)C(=O)[C@@H]2CCC[C@H]1N2S(=O)(=O)c1cc(Cl)cc(Cl)c1` (some centres unmarked) [MTQ515], the Ki [1] was 5 ± 1.2 nM, the Ki [2] was 4.8 ± 0.5 nM and the Ki [3] was 3.2 ± 0.9 nM. For the same molecule, the Ki [4] was 0.5 ± 0.1 nM.
With `C=C[C@H]1CN(Cc2cn(CCOCCOCCOCC(=O)Nc3cccc4c3C(=O)N(C3CCC(=O)NC3=O)C4=O)nn2)C(=O)[C@@H]2CCC[C@H]1N2S(=O)(=O)c1cc(Cl)cc(Cl)c1` (some centres unmarked) [MTQ505] the Ki [1] was 16 ± 5 nM, the Ki [2] was 21 ± 2 nM and the Ki [3] was 17 ± 4 nM. It also gave a Ki [4] of 2.4 ± 0.2 nM.
With `C=C[C@H]1CN(Cc2cn(CCOCCOCCOCCOCC(=O)Nc3cccc4c3C(=O)N(C3CCC(=O)NC3=O)C4=O)nn2)C(=O)[C@@H]2CCC[C@H]1N2S(=O)(=O)c1cc(Cl)cc(Cl)c1` (some centres unmarked) [MTQ506] the Ki [1] was 30 ± 8 nM, the Ki [2] was 19 ± 2 nM and the Ki [3] was 28 ± 5 nM. It also gave a Ki [4] of 1.5 ± 0.2 nM.
Work on `C=C[C@H]1CN(Cc2cn(CCOCCOCC(=O)Nc3cccc4c3C(=O)N(C3CCC(=O)NC3=O)C4=O)nn2)C(=O)[C@@H]2CCC[C@H]1N2S(=O)(=O)c1cc(Cl)cc(Cl)c1` (some centres unmarked) [MTQ504] yielded a Ki [1] of 43 ± 11 nM, a Ki [2] of 17 ± 1.3 nM and a Ki [3] of 25 ± 6 nM. The Ki [4] was 2.1 ± 0.2 nM.
`C=C[C@H]1CN(Cc2cn(CCOCCOCCOCCOCCOCC(=O)Nc3cccc4c3C(=O)N(C3CCC(=O)NC3=O)C4=O)nn2)C(=O)[C@@H]2CCC[C@H]1N2S(=O)(=O)c1cc(Cl)cc(Cl)c1` (some centres unmarked) [MTQ507] was tested, and the Ki [1] was 60 ± 12 nM, the Ki [2] was 10 ± 1.2 nM and the Ki [3] was 12 ± 2 nM. It also gave a Ki [4] of 0.7 ± 0.1 nM.
`C=C[C@H]1CN(Cc2ccccn2)C(=O)[C@@H]2CCC[C@H]1N2S(=O)(=O)c1cc(Cl)cc(Cl)c1` [6a] showed a Ki [5] of 1.3 nM, a Ki [6] of 54 nM and a Ki ([7]; read-out: Ki LpMip) of 1350 nM. It also gave a Ki [8] of 17 nM and a Ki [9] of 119 nM.
With `C=C[C@H]1CN([C@@H](C)c2cn(CCOCCOCCOCCOCCOCC(=O)Nc3cccc4c3C(=O)N(C3CCC(=O)NC3=O)C4=O)nn2)C(=O)[C@@H]2CCC[C@H]1N2S(=O)(=O)c1cc(Cl)cc(Cl)c1` (some centres unmarked) [MTQ517] the Ki [1] was 4.9 ± 1.1 nM, the Ki [2] was 1.5 ± 0.3 nM and the Ki [3] was 2.1 ± 0.4 nM. The Ki [4] was 0.4 ± 0.05 nM.
With `COC[C@H]1CN([C@@H](C)c2ccccn2)C(=O)[C@@H]2CCC[C@H]1N2S(=O)(=O)c1cc(Cl)cc(Cl)c1` [24b, (1S,5S,6R)-10-((3,5-dichlorophenyl)sulfonyl)-5-(methoxymethyl)-3-((S)-1-(pyridin-2-yl)ethyl)-3,10-diazabicyclo[4.3.1]decan-2-one] the Ki [5] was 0.04 nM, the Ki [6] was 0.35 nM and the Ki [7] was 36 nM. The Ki [8] was 0.41 nM and the Ki [9] was 0.83 nM.

Reference: US20230126391A1, “ALPHA-METHYL-SUBSTITUTED DIAZABICYCLO[4.3.1] DECANE DERIVATIVES FOR TREATMENT OF PSYCHIATRIC DISORDERS” (priority 2020, published 2023)
